The subject of the test is CD patients. Put plainly: prospective clinical intervention study of riboflavin in CD patients. The note with it: 100 mg riboflavin daily for 3 weeks. Format: in vivo, human. The procedure:
In a prospective clinical intervention study, 70 CD patients were included and divided into two groups with (active) and without (quiescent) evidence of mucosal inflammation (defined by fecal calprotectin (FC) cut-off value: 200 μg/g). Patients received 100 mg riboflavin daily for 3 weeks. Clinical disease activity (Harvey-Bradshaw Index: HBI), inflammatory biomarkers (including interleukin 2) as well as fecal microbial composition (including pathogenic Enterobacteriaceae including E. coli) were analyzed before and after riboflavin intervention.

Regarding `Cc1cc2nc3c(=O)[nH]c(=O)nc-3n(C[C@H](O)[C@H](O)[C@H](O)CO)c2cc1C` [riboflavin], the fecal calprotectin result (patients with TNF-alpha inhibitor treatment (FIG. 4)) is given as “further reduction”. Further, for the setting “patients with TNF-alpha inhibitor treatment (FIG. 5)”, the “proinflammatory cytokine IL2” value is listed as “further reduction”. Moreover, the “Enterobacteriaceae including E. coli (fecal microbial composition)” value (patients with TNF-alpha inhibitor treatment (FIG. 6)) is listed as “further reduction”. The “clinical disease activity (Harvey-Bradshaw Index: HBI)” value (patients with TNF-alpha inhibitor treatment, both active and quiescent disease, before vs after (FIG. 1-3)) is reported as “further reduced”; the “clinical disease activity (Harvey-Bradshaw Index: HBI)” value (patients with mesalazine treatment (FIG. 1-3)) is on record as “not the case (not as pronounced as)”.

(Values after patent US20220135667A1, “THERAPEUTIC COMBINATIONS AND COMPOSITIONS FOR THE TREATMENT OF INFLAMMATORY BOWEL DISEASE (II)” (RIJSUNIVERSITEIT GRONINGEN, priority 2019, published 2022).)
